# Reference: article PMC10525927, “First Generation of Antioxidant Precursors for Bioisosteric Se-NSAIDs: Design, Synthesis, and In Vitro and In Vivo Anticancer Evaluation” (Antioxidants, 2023)
# Experiments:
# H1299 lung cancer cells = assay: MTT cell viability assay, H1299; format: cell-based; settings: mean ± SD
# Procedure: The cell lines were purchased from the American Type Culture Collection (ATCC). The cancer cell lines DU-145, PC-3, T-47D, MDA-MB-231, H1299, and A549, and the non-tumorigenic cells (184B5 and BEAS-2B), were maintained in RPMI 1640 medium (Gibco, Alcobendas, Madrid, Spain) supplemented with 10% fetal bovine serum (FBS; Gibco) and 1% antibiotics (10.00 units/mL penicillin and 10.00 mg/mL streptomycin; Gibco). Colon cancer cells HT-29 and HCT-116 were cultured in McCoy’s 5A medium (Gibco) supplemented with 10% fetal bovine serum (FBS; Gibco) and 1% antibiotics (10.00 units/mL penicillin and 10.00 mg/mL streptomycin; Gibco). Cells were maintained in tissue culture flasks at 37 °C and 5% CO2. The culture medium was replaced every three days.
# The antiproliferative activity and selectivity in vitro of the Se-NSAID derivatives were determined by the (3-(4,5-dimethylthiazol-2-yl)-2,5-diphenyltetrazolium bromide) (MTT) assay. Compounds were dissolved in DMSO at a concentration of 0.01 M and serial dilutions were prepared. The Se-NSAID derivatives were tested at seven concentrations ranging between 1 and 100 µM in the colon (HT-29 and HCT-116), prostate (DU-145 and PC-3), breast (MDA-MB-231 and T-47D), and lung (H1299 and A549) cancer cell lines. The non-tumorigenic breast (184B5) and lung (BEAS-2B) cell lines were also tested to assess the selectivity of the compounds following the same procedure. A total of 1 × 10^4 cells were seeded per well in 96-well plates and incubated at 5% CO2 and 37 °C for 24 h. Then, cells were treated with either DMSO or increasing concentrations of the corresponding Se-NSAID derivatives for 48 h. A volume of 20 µL of MTT (5 mg/mL) was added to each well 2.5 h before the termination point. At the end of the experiment, the medium was removed, and the resultant formazan crystals formed by mitochondrial reduction of MTT were dissolved in 50 µL of DMSO. Absorbance was measured at 550 nm. IC50, GI50, TGI, and LC50 values were calculated using OriginPro version 8.5.1. software by nonlinear curve fitting. Selectivity indexes (SI) were calculated as the ratio of the IC50 values determined for the nonmalignant and the tumoral cells in the breast (IC50 (184B5)/IC50 (MDA-MB-231) and IC50 (184B5)/IC50 (T-47D)) and lung (IC50 (BEAS-2B)/IC50 (H1299) and IC50 (BEAS-2B)/IC50 (A549)) cell lines. Data were obtained from at least three independent experiments performed in triplicates.
# HCT-116 cells = assay: Caspase 3/7 apoptosis assay; format: cell-based; settings: HCT-116, 24 h
# Procedure: The capacity of the Se-NSAID derivatives to induce apoptosis was analyzed using both a Caspase 3/7 assay kit and Annexin V & Dead Cell assay kit (EMD Millipore, Darmstadt, Germany). HCT-116 cells were seeded in 6-well plates at a density of 5 × 10^5 cells per well. Cells were treated either with DMSO (control) or with different concentrations of compound 5 and incubated for 24 h. At the end of the treatment, cells were collected and treated with the respective dyes according to the manufacturer’s protocol. For the Caspase 3/7 assay, cells were stained with 5 µL of Muse™ Caspase 3/7 working solution and incubated at 37 °C for 30 min. After incubation, […] of Muse™ Caspase 7-AAD working solution was added and the samples were incubated for another 5 min in the dark at room temperature prior to analysis. For Annexin V assay, cells were stained with 100 µL pf Muse™ Annexin V & Dead Cell Reagent and incubated for 20 min at room temperature in the dark. Samples for both assays were analyzed on a Muse™ Cell Analyzer (Merck Millipore, Darmstadt, Germany) using Muse™ version 1.4. software.
# [1] = test system: HCT-116 colon cancer xenograft; assay: Tumor growth inhibition on HCT-116 colon cancer xenograft model; format: in vivo; settings: 10 mg/Kg IP
# Procedure: Female mice of 4–5 weeks of age (The Jackson Laboratory, Bar Harbor, ME, USA) were kept on the daily cycle of 12 h light/dark and received food and water ad libitum throughout the studies. All animal procedures were performed following the National Institutes of Health (NIH) Guide for the Care and Use of Laboratory Animals and protocols were approved by the Animal Care and Use Committee of the Penn State College of Medicine.
# All mice were housed in quarantine for one week prior to the inoculation of the cancer cells. Female nude mice (4–5 weeks old) were subcutaneously injected (100 µL of PBS/flank) with 2.5 × 10^6 HCT-116 colon cancer cells in each flank. Two weeks after inoculation, mice were sorted randomly into treatment and control groups (five mice/group) such that the mean tumor volumes were similar between groups. […] Mice that were injected with only DMSO (vehicle) were used as negative controls. The body weight of animals and the tumor volume were monitored thrice weekly. Tumor volumes were calculated using the formula (L × W^2)/2, wherein L and W are the length and width of the tumor mass measured with a vernier caliper, respectively. At the end of the experiment, mice were sacrificed by euthanizing the animals by CO2 asphyxiation, and the tumors were excised and weighed. Inspection of major morphological changes in organs was also carried out. The antitumor effect was assessed by the tumor growth inhibition (TGI) and the relative increment ratio (T/C) parameters in the aspects of tumor volume and tumor weight, respectively. The TGI was calculated using the following formula: TGI (%) = [1 − (T − T0)/(C − C0)] × 100, wherein T and C are the final tumor volumes measured at the end of the treatment of compound-treated mice and vehicle-treated mice, respectively, whereas T0 and C0 are the tumor volumes measured at the beginning of the treatment of compound-treated mice and vehicle-treated mice, respectively. The T/C value was calculated as WT/WC × 100, wherein WT is the mean of tumor weight of the compound-treated mice, and WC is the mean of tumor weight of the vehicle-treated mice.
compound,measurement,setting,value
"CC(C)Cc1ccc(C(C)C(=O)[Se][Se]C(=O)C(C)c2ccc(CC(C)C)cc2)cc1 (stereo not shown) [Compound 5, 2-(4-Isobutylphenyl)propanoic diselenoperoxyanhydride]",LD50 H1299,"H1299 lung cancer cells; 48 h, Table S1",16.5 ± 5.1 µM
same,IC50,"H1299 lung cancer cells; Homo sapiens, NCI-H1299, 48 h",9.3 ± 0.6 µM
same,GI50,"H1299 lung cancer cells; Homo sapiens, NCI-H1299, 48 h, Table S1",8.1 ± 1 µM
same,TGI H1299,"H1299 lung cancer cells; in vitro TGI concentration, 48 h, Table S1",10.2 ± 1.0 µM
same,Dead cells,"HCT-116 cells; Caspase 3/7 assay, 25 μM",~ 11%
same,caspase 3/7 activity,"HCT-116 cells; 2.5 to 25 µM, result in words",no clear enhancement
same,"TGI (tumor growth inhibition, tumor volume)","[1]; HCT-116 subcutaneous xenograft, female nude mice, 23 days of treatment, day 38, vs vehicle",72%
same,"T/C (relative increment ratio, tumor weight)","[1]; HCT-116 subcutaneous xenograft, female nude mice, end of treatment",38%
same,body weight of the mice vs vehicle during treatment,[1]; HCT-116 xenograft mice,slight change
same,toxicity signs (morphological abnormalities in major organs),"[1]; HCT-116 xenograft mice, end of experiment",no evident toxicity signs
